In PubChem BioAssay (NCI):
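Growth conditions: 96-well plates. Treatment: test compound, 48 hours, 5 concentrations. Analysis: linear interpolation between bracketing concentrations; unreached endpoints set to highest concentration. GI50 marks 50% less growth. The concentration for full growth arrest is given as TGI.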

Assays:
Assay in all cases: NCI tumour cell line growth inhibition, 48 h; in the data active means GI50 below about 0.43 µM; inactive means the rest
[1] = tested on: 786-0 renal
[2] = tested on: A498 renal
[3] = tested on: A549 NSCLC
[4] = tested on: ACHN renal
[5] = tested on: COLO 205 colon
[6] = tested on: DLD-1 colon
[7] = tested on: DMS 114 small cell lung
[8] = tested on: DMS 273 small cell lung
[9] = tested on: EKVX NSCLC
[10] = tested on: HCC-2998 colon
[11] = tested on: HCT-116 colon
[12] = tested on: HCT-15 colon
[13] = tested on: HL-60(TB) leukemia
[14] = tested on: HOP-18 NSCLC
[15] = tested on: HOP-62 NSCLC
[16] = tested on: HOP-92 NSCLC
[17] = tested on: HT29 colon
[18] = tested on: IGROV1 ovarian
[19] = tested on: K-562 leukemia
[20] = tested on: KM12 colon
[21] = tested on: KM20L2 colon
[22] = tested on: LOX IMVI melanoma
[23] = tested on: LXFL 529 NSCLC
[24] = tested on: M14 melanoma
[25] = tested on: M19-MEL melanoma
[26] = tested on: MALME-3M melanoma
[27] = tested on: NCI-H23 lung
[28] = tested on: NCI-H460 lung
[29] = tested on: NCI-H522 lung
[30] = tested on: OVCAR-3 ovarian
[31] = tested on: OVCAR-4 ovarian
[32] = tested on: OVCAR-5 ovarian
[33] = tested on: OVCAR-8 ovarian
[34] = tested on: RPMI-8226 leukemia
[35] = tested on: RXF 393 renal
[36] = tested on: RXF-631 renal
[37] = tested on: SF-268 CNS
[38] = tested on: SF-295 CNS
[39] = tested on: SF-539 CNS
[40] = tested on: SK-MEL-2 melanoma
[41] = tested on: SK-MEL-28 melanoma
[42] = tested on: SK-MEL-5 melanoma
[43] = tested on: SK-OV-3 ovarian
[44] = tested on: SN12C renal
[45] = tested on: SNB-19 CNS
[46] = tested on: SNB-75 CNS
[47] = tested on: SR leukemia
[48] = tested on: SW-620 colon
[49] = tested on: TK-10 renal
[50] = tested on: U251 CNS
[51] = tested on: UACC-257 melanoma
[52] = tested on: UACC-62 melanoma
[53] = tested on: UO-31 renal
[54] = tested on: XF 498 CNS

C[N+](C)(C)c1cc[c]([Sn]([c]2ccc([N+](C)(C)C)cc2)([c]2ccc([N+](C)(C)C)cc2)[c]2ccc([N+](C)(C)C)cc2)cc1
> 100 µM: TGI [1] | TGI [2] | TGI [3] | TGI [4] | TGI [5] | TGI [6] | TGI [7] | TGI [8] | TGI [9] | TGI [10] | TGI [11] | TGI [12] | TGI [13] | TGI [14] | TGI [15] | TGI [16] | TGI [17] | TGI [18] | TGI [19] | TGI [20] | TGI [21] | TGI [22] | TGI [23] | TGI [24] | TGI [25] | TGI [26] | TGI [27] | TGI [28] | TGI [29] | TGI [30] | TGI [31] | TGI [32] | TGI [33] | TGI [34] | TGI [35] | TGI [36] | TGI [37] | TGI [38] | TGI [39] | TGI [40] | TGI [41] | TGI [42] | TGI [43] | TGI [44] | TGI [45] | TGI [46] | TGI [47] | TGI [48] | TGI [49] | TGI [50] | TGI [51] | TGI [52] | TGI [53] | TGI [54]
inactive: GI50 [1] > 100 µM | GI50 [2] > 100 µM | GI50 [3] > 100 µM | GI50 [4] > 100 µM | GI50 [5] > 100 µM | GI50 [6] > 100 µM | GI50 [7] > 100 µM | GI50 [8] > 100 µM | GI50 [9] > 100 µM | GI50 [10] > 100 µM | GI50 [11] > 100 µM | GI50 [12] > 100 µM | GI50 [13] > 100 µM | GI50 [14] > 100 µM | GI50 [15] > 100 µM | GI50 [16] > 100 µM | GI50 [17] > 100 µM | GI50 [18] > 100 µM | GI50 [19] > 100 µM | GI50 [20] > 100 µM | GI50 [21] > 100 µM | GI50 [22] > 100 µM | GI50 [23] > 100 µM | GI50 [24] > 100 µM | GI50 [25] > 100 µM | GI50 [26] > 100 µM | GI50 [27] > 100 µM | GI50 [28] > 100 µM | GI50 [29] > 100 µM | GI50 [30] > 100 µM | GI50 [31] > 100 µM | GI50 [32] > 100 µM | GI50 [33] > 100 µM | GI50 [34] > 100 µM | GI50 [35] > 100 µM | GI50 [36] > 100 µM | GI50 [37] > 100 µM | GI50 [38] > 100 µM | GI50 [39] > 100 µM | GI50 [40] > 100 µM | GI50 [41] > 100 µM | GI50 [42] > 100 µM | GI50 [43] > 100 µM | GI50 [44] > 100 µM | GI50 [45] > 100 µM | GI50 [46] > 100 µM | GI50 [47] > 100 µM | GI50 [48] > 100 µM | GI50 [49] > 100 µM | GI50 [50] > 100 µM | GI50 [51] > 100 µM | GI50 [52] > 100 µM | GI50 [53] > 100 µM | GI50 [54] > 100 µM
